Data from ChEMBL document CHEMBL3734724, “Anticancer efficacy of unique pyridine-based tetraindoles” (Eur J Med Chem, 2015).

Columns and labels:
MDA-MB-231 [1] = assay: Cytotoxicity against human MDA-MB-231 cells assessed as growth inhibition at 20 uM after 48 hrs by MTT assay relative to control; format: functional; conditions: MDA-MB-231, 48 h, read-out: GI
[2] = Cytotoxicity against human M10 cells assessed as growth inhibition after 48 hrs by MTT assay; format: cell-based; conditions: M10, 48 h
[3] = Cytotoxicity against human BT549 cells assessed as growth inhibition after 48 hrs by MTT assay; format: functional, cell-based; conditions: BT-549, 48 h
MCF7 [4] = assay: Cytotoxicity against human MCF7 cells assessed as growth inhibition at 20 uM after 48 hrs by MTT assay relative to control; format: functional; conditions: MCF7, 48 h, read-out: GI
MDA-MB-231 [5] = assay: Cytotoxicity against human MDA-MB-231 cells assessed as growth inhibition after 48 hrs by MTT assay; format: functional, cell-based; conditions: MDA-MB-231, 48 h
[6] = Cytotoxicity against human Hs578T cells assessed as growth inhibition at 20 uM after 48 hrs by MTT assay relative to control; format: functional; conditions: Hs-578T, read-out: GI
MCF7 [7] = assay: Cytotoxicity against human MCF7 cells assessed as growth inhibition after 48 hrs by MTT assay; format: functional, cell-based; conditions: MCF7, 48 h
[8] = Cytotoxicity against human Hs578T cells assessed as growth inhibition after 48 hrs by MTT assay; format: functional, cell-based; conditions: Hs-578T
[9] = Cytotoxicity against human M10 cells assessed as growth inhibition at 20 uM after 48 hrs by MTT assay relative to control; format: cell-based; conditions: read-out: GI
[10] = Cytotoxicity against human BT549 cells assessed as growth inhibition at 20 uM after 48 hrs by MTT assay relative to control; format: functional; conditions: BT-549, 48 h, read-out: GI
4T1 = assay: Antitumor activity against luciferase-expressing mouse 4T1 cells allografted in athymic nude BALB/c mouse assessed as tumor growth inhibition at 12.5 mg/kg/week ip administered on first 3 days in first week followed by two shots on day 1 and day 4 at 6.25 mg/kg/week for another 3 weeks measured every other day until day 28 relative to vehicle-treated control; format: functional

Structure (SMILES) | inhibition of growth at 20 µM (MDA-MB-231 [1]) | IC50 [2] | IC50 [3] | inhibition of growth at 20 µM (MCF7 [4]) | IC50 (MDA-MB-231 [5]) | inhibition of growth at 20 µM [6] | IC50 (MCF7 [7]) | IC50 [8] | inhibition at 48 h, 20 µM [9] | inhibition of growth at 20 µM [10] | TGI (4T1)
COc1ccc2[nH]cc(C(c3cccc(C(c4c[nH]c5ccc(OC)cc45)c4c[nH]c5ccc(OC)cc45)n3)c3c[nH]c4ccc(OC)cc34)c2c1 | 0% | > 20 µM | 14 µM | 9% | > 20 µM | 18% | > 20 µM | > 20 µM | 0% | – | –
Fc1ccc2[nH]cc(C(c3ccc(C(c4c[nH]c5ccc(F)cc45)c4c[nH]c5ccc(F)cc45)nc3)c3c[nH]c4ccc(F)cc34)c2c1 | – | 19 µM | 13.1 µM | – | 8.6 µM | – | 14 µM | 17 µM | – | – | –
Brc1ccc2[nH]cc(C(c3cccc(C(c4c[nH]c5ccc(Br)cc45)c4c[nH]c5ccc(Br)cc45)n3)c3c[nH]c4ccc(Br)cc34)c2c1 | 13% | > 20 µM | > 20 µM | 0% | > 20 µM | 0% | > 20 µM | > 20 µM | 0% | 15% | –
Oc1ccc2[nH]cc(C(c3cccc(C(c4c[nH]c5ccc(O)cc45)c4c[nH]c5ccc(O)cc45)n3)c3c[nH]c4ccc(O)cc34)c2c1 | – | > 20 µM | > 20 µM | 11% | 10.3 µM | 2% | > 20 µM | > 20 µM | 9% | 10% | –
Oc1ccc2[nH]cc(C(c3ccc(C(c4c[nH]c5ccc(O)cc45)c4c[nH]c5ccc(O)cc45)cc3)c3c[nH]c4ccc(O)cc34)c2c1 | – | – | – | – | – | – | – | – | – | – | 16%
c1ccc2c(C(c3ccc(C(c4c[nH]c5ccccc45)c4c[nH]c5ccccc45)nc3)c3c[nH]c4ccccc34)c[nH]c2c1 | 4% | > 20 µM | 15 µM | 21% | > 20 µM | – | > 20 µM | 9 µM | 26% | – | –
N#Cc1ccc2[nH]cc(C(c3cccc(C(c4c[nH]c5ccc(C#N)cc45)c4c[nH]c5ccc(C#N)cc45)n3)c3c[nH]c4ccc(C#N)cc34)c2c1 | 0% | > 20 µM | 13 µM | 13% | > 20 µM | 22% | > 20 µM | > 20 µM | 0% | – | –
COc1ccc2[nH]cc(C(c3ccc(C(c4c[nH]c5ccc(OC)cc45)c4c[nH]c5ccc(OC)cc45)nc3)c3c[nH]c4ccc(OC)cc34)c2c1 | 11% | > 20 µM | > 20 µM | 29% | > 20 µM | 21% | > 20 µM | > 20 µM | 0% | 48% | –
Fc1ccc2[nH]cc(C(c3cccc(C(c4c[nH]c5ccc(F)cc45)c4c[nH]c5ccc(F)cc45)n3)c3c[nH]c4ccc(F)cc34)c2c1 | – | 12 µM | 9.7 µM | – | 9.6 µM | – | 20 µM | 8.9 µM | – | – | –
Brc1ccc2[nH]cc(C(c3ccc(C(c4c[nH]c5ccc(Br)cc45)c4c[nH]c5ccc(Br)cc45)nc3)c3c[nH]c4ccc(Br)cc34)c2c1 | 15% | > 20 µM | 10 µM | 0% | > 20 µM | 0% | > 20 µM | > 20 µM | 0% | – | –
Clc1ccc2[nH]cc(C(c3cccc(C(c4c[nH]c5ccc(Cl)cc45)c4c[nH]c5ccc(Cl)cc45)n3)c3c[nH]c4ccc(Cl)cc34)c2c1 | 0% | > 20 µM | 6 µM | 20% | > 20 µM | 5% | > 20 µM | > 20 µM | 28% | – | –
Clc1ccc2[nH]cc(C(c3ccc(C(c4c[nH]c5ccc(Cl)cc45)c4c[nH]c5ccc(Cl)cc45)nc3)c3c[nH]c4ccc(Cl)cc34)c2c1 | 9% | > 20 µM | > 20 µM | 11% | > 20 µM | 0% | > 20 µM | > 20 µM | 25% | 23% | –
c1cc(C(c2c[nH]c3ccccc23)c2c[nH]c3ccccc23)nc(C(c2c[nH]c3ccccc23)c2c[nH]c3ccccc23)c1 | 29% | > 20 µM | > 20 µM | 47% | > 20 µM | 8% | > 20 µM | > 20 µM | 32% | 22% | –
c1ccc(COc2ccc3[nH]cc(C(c4cccc(C(c5c[nH]c6ccc(OCc7ccccc7)cc56)c5c[nH]c6ccc(OCc7ccccc7)cc56)n4)c4c[nH]c5ccc(OCc6ccccc6)cc45)c3c2)cc1 | 0% | > 20 µM | > 20 µM | 0% | > 20 µM | 0% | > 20 µM | > 20 µM | 30% | 40% | –
Oc1ccc2c(C(c3ccc(C(c4c[nH]c5cc(O)ccc45)c4c[nH]c5cc(O)ccc45)nc3)c3c[nH]c4cc(O)ccc34)c[nH]c2c1 | – | > 20 µM | > 20 µM | 0% | 14 µM | 0% | > 20 µM | > 20 µM | 0% | 19% | –
N#Cc1ccc2[nH]cc(C(c3ccc(C(c4c[nH]c5ccc(C#N)cc45)c4c[nH]c5ccc(C#N)cc45)nc3)c3c[nH]c4ccc(C#N)cc34)c2c1 | 0% | > 20 µM | > 20 µM | 0% | > 20 µM | 22% | > 20 µM | > 20 µM | 0% | 28% | –
